Measured values taken from patent publication US20230218539A1, “TRANSDERMAL THERAPEUTIC SYSTEM COMPRISING THE INGREDIENT ROTIGOTINE AND AT LEAST ONE NON-AMINE-RESISTANT SILICONE ADHESIVE” (Luye Pharma Switzerland AG, priority 2020, published 2023).

What was measured:
[1] = as described in WO 2009/068520; cited from earlier work
[2] = Solubility of rotigotine in matrix components; assay type: physicochemical

| SMILES | Thermodynamic stability of the polymorphic form [1] | Solubility in a crystallization inhibitor such as polyvinylpyrrolidone [2] | Solubility in silicone adhesives [2] |
| --- | --- | --- | --- |
| CCCN(CCc1cccs1)[C@H]1CCc2c(O)cccc2C1 [polymorphic form II] | thermodynamically more stable than the polymorphic form I | – | – |
| CCCN(CCc1cccs1)[C@H]1CCc2c(O)cccc2C1 [Rotigotine] | – | good soluble | very poorly soluble |
